{"source": "patent US7767789B2", "about": "“Truncated proteins as cancer markers” (University Hopitals of Cleveland, priority 2005, dated 2010)", "key": {"HEK-293-P2X7 cells": {"test_system": "HEK-293-P2X7 cells", "experiment": "Apoptosis, Cell Death Detection ELISA-PLUS, HEK-293 cells", "assay_type": "cell-based, human", "settings": "BzATP 50 micromolar", "procedure": "(§1) Baseline and BzATP-induced apoptosis in MDCK cells and in HEK-293 cells expressing P2X7 and P2X7-j proteins were studied. FIG. 17. […] Cells were treated with BzATP (50 micromolar) to activate the P2X7 receptors. Apoptosis was quantified using Cell Death Detection ELISA-PLUS photometric enzyme-immunoassay that determines cytoplasmic histone-associated-DNA-fragments (mono and oligonucleosomes) after spontaneous or induced cell death (Roche, Cat. No. 1774425, 96 tests). […] Expression of the P2X7-j proteins either had no effect (HEK-293 cells) or may have decreased apoptosis (MDCK cells)."}, "MDCK-P2X7 cells": {"test_system": "MDCK-P2X7 cells", "experiment": "Apoptosis, Cell Death Detection ELISA-PLUS, MDCK cells", "assay_type": "cell-based, canine", "settings": "doxycycline treated MDCK-P2X7 cells; BzATP 50 micromolar", "procedure": "as §1"}, "[1]": {"test_system": "P2X7-mediated pore (HEK-293 cells expressing P2X7 or P2X7-j)", "assay_type": "cell-based, human", "settings": "P2X7 plus P2X7-j HEK-293 cells compared to P2X7 HEK-293 cells"}, "[2]": {"target": "T1, P2X7-mediated pore (HEK-293 cells expressing P2X7 or P2X7-j) (Homo sapiens, UniProt Q99572, R270H/Y155H)", "T1 construct": "expressed in transfected cells; host or cells: HEK-293", "T1 sequence (Q99572 whole entry Y155H/R270H)": "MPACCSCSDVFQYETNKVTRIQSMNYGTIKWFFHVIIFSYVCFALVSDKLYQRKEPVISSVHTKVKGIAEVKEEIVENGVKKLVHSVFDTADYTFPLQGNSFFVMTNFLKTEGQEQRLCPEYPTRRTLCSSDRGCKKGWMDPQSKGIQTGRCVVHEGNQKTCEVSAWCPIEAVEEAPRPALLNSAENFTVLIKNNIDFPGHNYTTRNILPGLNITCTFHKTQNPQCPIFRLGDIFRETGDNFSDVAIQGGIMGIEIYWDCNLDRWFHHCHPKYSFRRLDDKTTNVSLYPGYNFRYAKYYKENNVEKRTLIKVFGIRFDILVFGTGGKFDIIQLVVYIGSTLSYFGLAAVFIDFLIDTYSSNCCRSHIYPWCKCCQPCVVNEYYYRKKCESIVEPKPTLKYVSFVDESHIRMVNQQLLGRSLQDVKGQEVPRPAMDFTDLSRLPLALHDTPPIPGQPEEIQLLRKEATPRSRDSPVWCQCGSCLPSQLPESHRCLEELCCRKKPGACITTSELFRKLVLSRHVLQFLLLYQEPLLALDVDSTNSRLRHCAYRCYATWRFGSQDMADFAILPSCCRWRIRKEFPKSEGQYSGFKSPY", "assay_type": "cell-based", "settings": "HEK-293-P2X7 cells; BzATP 100 micromolar"}, "[3]": {"target": "T2, P2X7-mediated pore (HEK-293 cells expressing P2X7 or P2X7-j) (Homo sapiens, UniProt Q99572, Y155H)", "T2 construct": "expressed in transfected cells; host or cells: HEK-293", "T2 sequence (Q99572 1-258 isoform Q99572-9 Y155H)": "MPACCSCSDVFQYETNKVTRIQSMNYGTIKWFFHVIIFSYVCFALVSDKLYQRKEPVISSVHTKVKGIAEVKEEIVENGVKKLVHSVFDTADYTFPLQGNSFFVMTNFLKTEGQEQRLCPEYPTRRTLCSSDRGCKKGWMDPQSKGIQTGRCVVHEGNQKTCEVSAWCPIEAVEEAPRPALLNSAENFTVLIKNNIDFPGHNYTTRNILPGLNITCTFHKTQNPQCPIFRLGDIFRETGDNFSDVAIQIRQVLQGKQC", "assay_type": "cell-based", "settings": "HEK-293-P2X7-j cells compared to HEK-293-P2X7 cells"}, "[4]": {"target": "T3, P2X7 channel (MDCK cells expressing P2X7 or P2X7-j) (Homo sapiens, UniProt Q99572, R270H/Y155H)", "T3 construct": "expressed in transfected cells; host or cells: MDCK (canine kidney), doxycycline-inducible promoter", "T3 sequence (Q99572 whole entry Y155H/R270H)": "as the sequence (Q99572 whole entry Y155H/R270H) above", "experiment": "BzATP-stimulated channel activation (Fluo-4 calcium), MDCK cells", "assay_type": "cell-based", "settings": "MDCK-P2X7 cells; 100 micromolar BzATP", "procedure": "(§2) 2′-3′-O-(4-benzoyl-benzoyl)adenosine 5′-triphosphate (BzATP) stimulated channel activation of P2X7 and P2X7-j was determined. FIG. 11. As discussed earlier, activation of P2X7 receptors provides influx of selected cations through the ATP-activated channel provided by the P2X7 protein. MDCK or HEK-293 cells expressing either P2X7 or P2X7-j were loaded with the calcium-sensitive dye Fluo-4 and treated with 100 micromolar of BzATP. Calcium entry into the cells via the P2X7 channel after BzATP activation was measured in terms of changes in Fluo-4 fluorescence.\n(§3) A quantification of the changes in cytosolic calcium after BzATP exposure provided data that was similar to that presented in FIG. 11. FIG. 12."}, "[5]": {"target": "T4, P2X7 channel (MDCK cells expressing P2X7 or P2X7-j) (Homo sapiens, UniProt Q99572, Y155H)", "T4 construct": "expressed in transfected cells; host or cells: MDCK (canine kidney), doxycycline-inducible promoter", "T4 sequence (Q99572 1-258 isoform Q99572-9 Y155H)": "as the sequence (Q99572 1-258 isoform Q99572-9 Y155H) above", "experiment": "BzATP-stimulated channel activation (Fluo-4 calcium), MDCK cells", "assay_type": "cell-based", "settings": "MDCK-P2X7-j cells compared to MDCK-P2X7 cells", "procedure": "as §2, §3"}, "CaSki cells": {"test_system": "CaSki cells", "experiment": "DNA solubilization assay (apoptosis)", "assay_type": "cell-based, human", "procedure": "Twenty-four hours before the end of the experiment, cells were labeled with [^3H]thymidine (specific activity, 93 Ci/mmol; 5 μCi/1×10^6 cells) for 16 h. The medium was removed, and cells were washed three times with fresh medium lacking [^3H]thymidine and were incubated in the same medium for an additional 6 h. At the end of incubation, the supernatant was stored, and cells were lysed in 0.5 ml lysis buffer (10 mM Tris-HCl, pH 7.5; plus 1 mM EDTA-0.2% Triton X-100) for 1 h at 4° C. The intact chromatin was separated from the fragmented DNA by 5 min centrifugation at 4° C. in Eppendorf microcentrifuge at 12,000×g. The supernatant (lysate) was stored, while the pellet was resuspended in 0.5 ml of 1% sodium dodecyl sulfate (SDS). The radioactivity contained in the supernatants, lysates; and pellets was counted in a scintillation counter, and DNA fragmentation was calculated as: [% Solubilized DNA]=([cpm supernatant+cpm lysates]/[cpm supernatant+cpm lysate+cpm pellet])×100."}, "[6]": {"test_system": "β-arrestin-2-GFP in CaSki cells", "experiment": "Real-time confocal microscopy of β-arrestin-2-GFP, CaSki cells", "assay_type": "cell-based, human", "settings": "CaSki transfected with β-arrestin-2-GFP; not shown", "procedure": "CaSki cells transfected with the β-arrestin-2-GFP, or HEK-293 cells co-transfected with the full-length human P2X7-receptor and the β-arrestin-2-GFP were plated on 35-mm glass-bottom culture dishes (MatTek Corporation, Ashland, MA). Dishes contained a centered, 1 cm well formed from a glass coverslip sealed hole in the plastic. Two hours before experiments the medium was replaced with serum-free medium supplemented with 10 mM HEPES. The distribution of the β-arrestin-2-GFP was visualized before and after treatment with the agonist by real-time confocal microscopy. Imaging of the β-arrestin-2-GFP fluorescence in the same cells was performed on a Zeiss laser-scanning confocal microscope (LSM-510) using a heated (37° C.) microscope stage. Barak et al., “A beta-arrestin/green fluorescent protein biosensor for detecting G protein-coupled receptor activation” J Biol Chem 272:27497-27500 (1997).\nImages were collected sequentially before and after treatment with agonist for 0-30 min at 37° C. using single line excitation (488 nm)."}, "[7]": {"target": "T5, P2X7-mediated pore (MDCK cells expressing P2X7 or P2X7-j) (Homo sapiens, UniProt Q99572, R270H/Y155H)", "T5 construct": "expressed in transfected cells; host or cells: MDCK (canine kidney), doxycycline-inducible promoter", "T5 sequence (Q99572 whole entry Y155H/R270H)": "as the sequence (Q99572 whole entry Y155H/R270H) above", "experiment": "BzATP-stimulated pore activation (ethidium bromide entry), MDCK cells", "assay_type": "cell-based", "settings": "doxycycline-treated MDCK-P2X7 cells; BzATP 100 micromolar", "procedure": "(§4) BzATP-stimulated pore activation of P2X7 and P2X7-j receptor proteins was also determined. FIG. 13. MDCK cells or HEK-293 cells expressing either P2X7 or P2X7-j were treated with BzATP in the presence of ethidium bromide. Fluorescence of ethidium bromide was measured after BzATP activation (100 micromolar) as a measure of ethidium bromide entry into the cells via the P2X7-mediated pore. Results in seven Panels (A-G) each composed of 30 exposures of cells placed on a glass slide. The direction of the pictures in each Panel is left to right, and then up-down. […] FIG. 13, Panel B and Panel F, respectively.\n(§5) A quantification of the changes in ethidium bromide signaling from experiments similar to those in FIG. 13 was then calculated. FIG. 14."}, "[8]": {"target": "T6, P2X7-mediated pore (MDCK cells expressing P2X7 or P2X7-j) (Homo sapiens, UniProt Q99572, Y155H)", "T6 construct": "expressed in transfected cells; host or cells: MDCK (canine kidney), doxycycline-inducible promoter", "T6 sequence (Q99572 1-258 isoform Q99572-9 Y155H)": "as the sequence (Q99572 1-258 isoform Q99572-9 Y155H) above", "experiment": "BzATP-stimulated pore activation (ethidium bromide entry), MDCK cells", "assay_type": "cell-based", "settings": "doxycycline-treated MDCK-P2X7-j cells compared to MDCK-P2X7 cells", "procedure": "as §4, §5"}}}
{"substance": "2′-3′-O-(4-benzoylbenzoyl)adenosine 5′-triphosphate [BzATP]", "values": [{"measurement": "apoptosis", "setting": "HEK-293-P2X7 cells", "result": "further increased this baseline apoptosis"}, {"measurement": "apoptosis", "setting": "MDCK-P2X7 cells", "result": "increased apoptosis"}, {"measurement": "ethidium bromide response to BzATP", "setting": "[1]", "result": "significantly smaller"}, {"measurement": "ethidium bromide signaling (pore)", "setting": "[2]", "result": "increased ethidium bromide signaling"}, {"measurement": "ethidium bromide signaling response to BzATP", "setting": "[3]", "result": "significantly smaller"}, {"measurement": "Fluo-4 signal (cytosolic calcium)", "setting": "[4]", "result": "increased acutely the Fluo-4 signal"}, {"measurement": "calcium response to BzATP", "setting": "[5]", "result": "significantly smaller"}, {"measurement": "DNA solubilization", "setting": "CaSki cells; 100 μM BzATP for 9 h, baseline 1.9%", "result": 7.8, "unit": "%"}, {"measurement": "DNA solubilization", "setting": "CaSki cells; 100 μM BzATP for 9 h or 10 μM TNFα for 14 h", "result": "significantly increased DNA solubilization"}, {"measurement": "re-distribution of GFP fluorescence towards cell periphery", "setting": "[6]", "result": "A similar effect was observed"}, {"measurement": "ethidium bromide signaling (pore)", "setting": "[7]", "result": "increased ethidium bromide signaling"}, {"measurement": "ethidium bromide signaling response to BzATP", "setting": "[8]", "result": "significantly smaller"}]}
